Measurements: PubChem BioAssay (NCI)
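These data come from cells grown in 96-well plates and exposed to compound for 48 hours at five concentrations. GI50 marks 50% less growth. TGI: concentration producing complete growth inhibition.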

Columns and labels:
Assay in all cases: NCI tumour cell line growth inhibition, 48 h
HCC-2998 colon = tested on: HCC-2998 colon
MOLT-4 leukemia = tested on: MOLT-4 leukemia
HCT-116 colon = tested on: HCT-116 colon
KM12 colon = tested on: KM12 colon
NCI-H460 lung = tested on: NCI-H460 lung
M14 melanoma = tested on: M14 melanoma
CAKI-1 renal = tested on: CAKI-1 renal
SK-MEL-5 melanoma = tested on: SK-MEL-5 melanoma
HCT-15 colon = tested on: HCT-15 colon
SR leukemia = tested on: SR leukemia

SMILES	GI50 (HCC-2998 colon) [µM]	TGI (HCC-2998 colon) [µM]	GI50 (MOLT-4 leukemia) [µM]	TGI (MOLT-4 leukemia) [µM]	GI50 (HCT-116 colon) [µM]	TGI (HCT-116 colon) [µM]	GI50 (KM12 colon) [µM]	TGI (KM12 colon) [µM]	GI50 (NCI-H460 lung) [µM]	TGI (NCI-H460 lung) [µM]	GI50 (M14 melanoma) [µM]	TGI (M14 melanoma) [µM]	GI50 (CAKI-1 renal) [µM]	TGI (CAKI-1 renal) [µM]	GI50 (SK-MEL-5 melanoma) [µM]	TGI (SK-MEL-5 melanoma) [µM]	GI50 (HCT-15 colon) [µM]	TGI (HCT-15 colon) [µM]	TGI (SR leukemia) [µM]	GI50 (SR leukemia) [µM]
[Cl-].[Dy+3].[O-]/N=C(\c1ccccc1)c1ccccn1.[O-]/N=C(\c1ccccc1)c1ccccn1.[O-]/N=C(\c1ccccc1)c1ccccn1	27.6	88.8	8.47	78.7	49.8	> 100	55.3	> 100	28.8	> 100	22.1	43.1	31	> 100	23.7	61.7	37	> 100		
O=C1CCC2(c3ccc(F)cc3)Nc3cc(Cl)ccc3N12 (stereo unspecified)				> 100		> 100		> 100				> 100				> 100		> 100	> 100	
C/C(CC(=O)Nc1ccc(C)cc1C)=N/N=C(N)N		> 100		> 100		> 100		> 100		> 100		> 100				> 100				
O=C1O[C@@H](c2ccc3c(c2)OCO3)C2C(=O)O[C@@H](c3ccc4c(c3)OCO4)C12 (stereo partly specified)		> 100		> 100		> 100		> 100		> 100		> 100				> 100		> 100		
CC(C)(C)OC(=O)N1CCc2c(sc3ncnc(N/N=C/c4cccc5ccccc45)c23)C1	12.9	> 100	3.25	16.9	3.22	30.4	4.3	76.9	3.29	12.7			3.35	> 100	3.36	11.1	3.86	> 100	16	2.82
CCC(C)c1c(Cl)nc(Cl)nc1Cl (stereo unspecified)		60.6		> 100		17.9		10.6		34.2		3.43				13		35.3		
O=c1c2cc([N+](=O)[O-])ccc2sc2ccsc12		> 100		> 100		> 100		> 100		> 100		> 100				> 100		> 100		
CC(C)c1nc(CN(C)C(=O)N[C@H](C(=O)N[C@@H](Cc2ccccc2)C[C@H](O)[C@H](Cc2ccccc2)NC(=O)OCc2cncs2)C(C)C)cs1	22.2	45.2	7.54	27.5	19.9	50.1	23.1	56.7	17.5	55.7	18	41.7	31.3	68.2	17.1	33.5	24.5	> 100		
CC(C)(CC(=O)Nc1ccccc1)C(=O)O				> 100		> 100		> 100		> 100		> 100		> 100		> 100		> 100	> 100	
Nc1cc(N)c2nc(-c3ccccc3)c(Nc3ccc(Cl)c(Cl)c3)nc2c1			4.05	> 100	10.6	53	5.89	24.6	8.27	22.9	14.7	60	13.5	29.6	11	25.5	21.2	> 100	15.5	2.56
Cc1cc2c(cc1C)[n+](=O)c(C(=O)C/C(=N/NC(=O)CC#N)C(=O)Nc1ccccc1C(F)(F)F)c(C)n2[O-]		> 100		> 100		> 100		> 100		> 100		> 100		> 100				> 100		
CC(C)(C)C1C=C(Sc2ccccc2)C(=O)O1 (stereo unspecified)		> 100		> 100		> 100		> 100		> 100		> 100		> 100				> 100		
COc1ccc(C2=CC3CCC2C3)cc1 (stereo unspecified)				> 100		> 100		> 100		> 100		> 100		> 100		> 100		> 100	> 100	
COc1ccc(/C=C/CN(C)CCc2ccccc2)cc1OC		> 100		> 100		> 100		> 100								> 100		> 100		
COc1ccc(/C=C/c2nccc3ccccc23)cc1OC		> 10		> 10		> 10		> 10		> 10		> 10		> 10		> 10		> 10		
CCC[CH2][Sn]([CH2]CCC)([O]C(=O)c1cccnc1SC)[O]C(=O)c1cccnc1SC	1.3	2.57	0.149	0.929	1.12	2.32	1.51	3.08	1.66	3.47	1.04	2.29			1.27	2.56	1.04	2.3		
CCN(CC)c1ccc(/C=C/c2ccc3cc(C)ccc3[n+]2CC)cc1	0.197	15.3	0.161	2.65	0.033	2.57	0.103	1.89			0.182	1.63	2.03	12	0.0493	0.261	1.32	12.9	2.28	0.09
COC1/C=C\C=C(/C)C(=O)NC2=CC(=O)C(=O)C(=C2O)CC(C)CC(OC)C(O)C(C)/C=C(\C)C1OC(N)=O (stereo unspecified)				> 52.3		14.4		5.57		> 100		> 53.2		> 42		43.7		> 100	25	
Cn1c2ccccc2c2c(-c3ccccc3)[n+]3ccncc3nc21	> 100	> 100	> 100	> 100	> 100	> 100	74.9	> 100	> 100	> 100	> 100	> 100	> 100	> 100	37.2	> 100	> 100	> 100		
C/C(CC(=O)Nc1cc(Cl)c(Cl)cc1Cl)=N\NC(N)=O		> 100		> 100		> 100		> 100				> 100				> 100				
